These results are taken from patent publication US8604046B2, “Substituted piperidine spiro pyrrolidinone and piperidinone, preparation and therapeutic use thereof” (Sanofi, priority 2008, dated 2013).

Assay [1] addresses T1, rhesus H3 receptor (Macaca mulatta, UniProt Q865E1). In words: GTPγS radioligand binding assay, inhibition of rhesus H3 constitutive functional activity (inverse agonism). The arrangement: concentration or dose not given beside the values. Type of assay: biochemical, rhesus monkey (Macacca Mulatta). The conditions noted are these: rhesus H3 cell membranes, relative to basal levels. In outline: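 Membranes from tetracycline-induced (500 ng/ml, 24 h) Flp-In T-REx 293 cells stably expressing the 445-aa rhesus H3 receptor, resuspended in 5 mM HEPES pH 7.4 at 10 mg/ml protein. Inverse agonism measured as inhibition of constitutive GTPγS binding.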

Assay [2] addresses T1, rhesus H3 receptor. Description: Rhesus H3 [3H]-methylhistamine radioligand binding assay. More on the design: species or system rhesus monkey (Macacca Mulatta). The settings on record: [3H]-Methylhistamine 2 nM, rhesus H3 membranes, WGA SPA beads, Cheng-Prusoff. The procedure, abridged:
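Membranes from tetracycline-induced (500 ng/ml, 24 h) Flp-In T-REx 293 cells expressing 445-aa rhesus H3 receptor, 20-30 μg protein per reaction. WGA SPA format with 2 nM [3H]-methylhistamine, 1 hour at 25° C; Ki obtained via Hill transformation and Cheng-Prusoff equation.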

T1 sequence (Q865E1 1-445): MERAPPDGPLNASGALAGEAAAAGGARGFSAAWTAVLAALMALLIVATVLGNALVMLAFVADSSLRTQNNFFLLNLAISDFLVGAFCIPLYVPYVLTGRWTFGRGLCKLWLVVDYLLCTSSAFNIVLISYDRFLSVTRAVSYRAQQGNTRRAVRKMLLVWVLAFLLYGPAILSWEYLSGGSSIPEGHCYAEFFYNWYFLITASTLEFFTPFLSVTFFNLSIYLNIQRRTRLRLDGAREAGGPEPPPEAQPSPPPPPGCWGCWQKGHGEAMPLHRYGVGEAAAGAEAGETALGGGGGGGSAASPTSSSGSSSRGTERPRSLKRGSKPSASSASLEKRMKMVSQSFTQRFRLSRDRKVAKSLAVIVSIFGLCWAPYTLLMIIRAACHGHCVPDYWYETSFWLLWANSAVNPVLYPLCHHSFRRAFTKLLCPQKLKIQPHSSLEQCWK

For the molecule `Cc1cc(N2CC[C@H](N3CCC[C@@H]3C)C2)ccc1N1CCC2(CCN(CC3CCCC3)CC2)C1=O` [Example 13, 8-Cyclopentylmethyl-2-[2-methyl-4-((2S,3′S)-2-methyl-[1,3′]bipyrrolidinyl-1′-l)-phenyl]-2,8-diaza-spiro[4.5]decan-1-one], the “Inverse Agonism: % inhibition of Basal GTPγS binding in Rhesus H3” value in assay [1] is −37%. The affinity in assay [2] corresponds to a Ki of 0.8 nM.
For `C[C@H]1CCCCN1[C@H]1CCN(c2ccc(N3CCC4(CCN(S(=O)(=O)c5ccc(F)cc5)CC4)C3=O)cc2)C1` [Example 53, 8-(4-Fluoro-benzenesulfonyl)-2-{4-[3-((2S,3′S)-2-methyl-piperidin-1-yl)-pyrrolidin-1-yl]-phenyl}-2,8-diaza-spiro[4.5]decan-1-one], in that order: −13% and 1.9 nM.
